Test results reported in patent publication US12691070B2, “Cationic lipids and preparation method thereof” (RiboX Therapeutics HK Limited, priority 2023, dated 2026).

Legend:
[1] = system: MCP-I; test: MCP-I cytokine elevation in serum; type: in vivo; settings: cirRNA (SEQ ID NO: 1) LNPs, mice
Protocol: 6-8 week old, female BALB/C mice were injected with 0.5 mg*kg-1 of RNA LNPs by intravenous injection. At 2 and 24 hours post injection, animals were bled and sera concentrations of MCP-I were determined by an immunoassay (Luminex).

[2] = system: Hep G2 cells; test: In vitro expression of firefly-luciferase, Hep G2; type: cell-based
Method in brief: (§1)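 Luminescence from cell lysates reports expression: luciferase activity was measured 72 h after transfection with 100 ng/mL RNA-LNPs encoding firefly luciferase.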

[3] = system: BALB/C mice; test: In vivo expression, whole-body luminescence (IVIS)
Protocol: 6-8 week old, female BALB/C mice were injected with 0.05 mg*kg-1 of RNA-LNPs encoding for firefly-luciferase by intravenous injection. At 6 hours post injection, animals were intraperitoneally injected with 15 mg/ml of Luciferin substrate and whole-body luminescence was determined by a bioluminescent in vivo imaging system (IVIS).

[4] = system: Aspartate Aminotransferase (AST); test: Liver enzyme elevation in serum, AST; type: in vivo; settings: cirRNA (SEQ ID NO: 1) LNPs, BALB/C mice, intravenous 0.5 MPK
Protocol: (§2) 6-8 week old, female BALB/C mice were injected with 0.5 mg*kg-1 of RNA LNPs by intravenous injection. At 2 and 24 hours post injection, animals were bled and sera concentrations of Alanine Aminotransferase (ALT) and Aspartate Aminotransferase (AST) were determined by a blood chemistry analyzer.

[5] = LNP zeta potential (Zetasizer); type: physicochemical
Method in brief: (§3)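 LNPs of ionizable lipid/DSPC/cholesterol/DMG-PEG 2000 (50:10:38.5:1.5) made by microfluidic mixing of luciferase circRNA or mRNA in pH 4.5 acetate with lipids in ethanol (3:1, 12 ml/min), ionizable lipid:nucleotide 15 or 6, then dialyzed against PBS. Size, PDI (DLS) and zeta potential on Zetasizer; encapsulation by Ribogreen ± Triton X-100.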

[6] = RNA encapsulation efficacy by Quant-IT Ribogreen kit; type: physicochemical; settings: for Encapsulation Efficiency %: LNP with cirRNA (SEQ ID NO: 1); for Encapsulation Efficiency: LNP with mRNA (SEQ ID NO: 2)
Method in brief: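 Ribogreen fluorescence with and without Triton X-100 gave encapsulation as 100% − (intact/lysed) signal; DLS size, PDI and zeta potential measured on a Zetasizer. Particles: 50:10:38.5:1.5 lipid mix, luciferase circRNA or mRNA, lipid:nucleotide 15 or 6, microfluidic assembly at pH 4.5, PBS-dialyzed.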

[7] = LNP size and polydispersity index (PDI) by dynamic light scattering; type: physicochemical; settings: for Size: in nm (unit assumed)
Method in brief: as §3

[8] = system: RAW 264.7 cells; test: In vitro expression of firefly-luciferase, RAW 264.7; type: cell-based
Method in brief: as §1

[9] = system: Hep G2 cells; test: In vitro toxicity (CellTiter-Glo cell viability), Hep G2; type: cell-based;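 further: percent of untreated cells luminescence signal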
Method in brief: (§4)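 First, cells receive RNA-LNPs at 1 μg/mL by transfection. After 72 hours, CellTiter-Glo reagent is added per kit protocol. Luminescence is then read and converted to cell viability.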

[10] = system: BALB/C mice; test: Local tolerance determination by footpad injection; type: in vivo; settings: cirRNA (SEQ ID NO: 1) LNP, 0.175 mg*kg-1 subcutaneous into the footpad, 24 hours post minus prior
Protocol: 6-8 week old, female BALB/C mice were injected with 0.175 mg*kg-1 RNA LNPs by subcutaneous injection into the footpad. Prior to, and 24 hours post injections, injected footpad thickness was determined by a caliper.

[11] = system: Alanine Aminotransferase (ALT); test: Liver enzyme elevation in serum, ALT; type: in vivo; settings: cirRNA (SEQ ID NO: 1) LNPs, BALB/C mice, intravenous 0.5 MPK
Protocol: as §2

[12] = system: RAW 264.7 cells; test: In vitro toxicity (CellTiter-Glo cell viability), RAW 264.7; type: cell-based;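 further: percent of untreated cells luminescence signal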
Method in brief: as §4

[13] = cirRNA (SEQ ID NO: 1) LNPs, firefly-luciferase luminescence, Hep G2 cells
[14] = mRNA (SEQ ID NO: 2) LNP, 100 ng/mL, 72 hours post transfection, luciferase activity
[15] = cirRNA (SEQ ID NO: 1) LNPs, BALB/C mice
[16] = mRNA (SEQ ID NO: 2) LNP, 0.05 mg*kg-1 intravenous, 6 hours post injection
[17] = cirRNA (SEQ ID NO: 1) LNPs, firefly-luciferase luminescence, RAW 264.7 cells
[18] = cirRNA (SEQ ID NO: 1) LNPs, Hep G2 cells
[19] = mRNA (SEQ ID NO: 2) LNP, 1 μg/mL, 72 hours post transfection
[20] = cirRNA (SEQ ID NO: 1) LNPs, RAW 264.7 cells

Structure (SMILES)	MCP-I in Sera 2 hours After 0.5 MPK Injection [1]	MCP-I in Sera 24 hours After 0.5 MPK Injection [1]	Zeta (mV) ([5]; LNP with cirRNA (SEQ ID NO: 1))	Zeta (mV) ([5]; LNP with mRNA (SEQ ID NO: 2))	Encapsulation Efficiency % [6]	Encapsulation Efficiency [6]	PDI ([7]; LNP with cirRNA (SEQ ID NO: 1))	Size ([7]; LNP with cirRNA (SEQ ID NO: 1))	PDI ([7]; LNP with mRNA (SEQ ID NO: 2))	Size ([7]; LNP with mRNA (SEQ ID NO: 2))	In vitro Expression HepG2 [2, 13]	In vitro Expression HepG2 [2, 14]	In vivo Expression (Whole Body) [3, 15]	In vivo Expression (Whole Body) [3, 16]	AST in Sera (IU/L) 2 hours After 0.5 MPK Injection [4]	AST in Sera (IU/L) 24 hours After 0.5 MPK Injection [4]	In vitro Expression RAW [8, 17]	In vitro Expression RAW [8, 14]	In vitro Viability HepG2 [9, 18]	In vitro Viability HepG2 [9, 19]	other results
CCCCCCCCCCCOC(=O)CCCCCN(CCCCCCCC(=O)OC(CCCCCCCC)CCCCCCCC)CCOC(=O)NCCN1CCCCC1 [Lipid 165]	127.19 pg/mL	113.67 pg/mL	−1.76 mV	−0.3264 mV	91%	86.43%	0.05	90.53	0.1265	98.24	7.20E+05	3.27E+06	1.11E+08	1.63E+08	128.43 IU/L	99.03 IU/L	5.29E+04	6.06E+05	94%	93%	Footpad Thickness (24 h−0 h, mm) [10]: 0.32 mm; ALT in Sera (IU/L) 2 hours After 0.5 MPK Injection [11]: 63.90 IU/L; ALT in Sera (IU/L) 24 hours After 0.5 MPK Injection [11]: 61.47 IU/L; In vitro Viability RAW [12, 20]: 88%; In vitro Viability RAW [12, 19]: 101%
CCCCCCCCCCC(CCCCCCCC)COC(=O)CCCCCN(CCCCCC(=O)OCC(CCCCCCCC)CCCCCCCCCC)CCOC(=O)NCCN(C)C (stereo not drawn) [Lipid 170]	1322.04 pg/mL	922.24 pg/mL	−0.455 mV	3.233 mV	97%	86.13%	0.08	96.82	0.0744	165.8	2.91E+07	2.23E+08	3.35E+08	1.02E+09	175.67 IU/L	120.57 IU/L	3.14E+06	2.87E+02	31%	124%	Footpad Thickness (24 h−0 h, mm) [10]: 0.95 mm; ALT in Sera (IU/L) 2 hours After 0.5 MPK Injection [11]: 62.53 IU/L; ALT in Sera (IU/L) 24 hours After 0.5 MPK Injection [11]: 66.47 IU/L; In vitro Viability RAW [12, 20]: 92%; In vitro Viability RAW [12, 19]: 82%
CCCCCCCCCC(=O)OCCCCCCCN(CCCCCCCCOC(=O)C(CCCCCC)CCCCCCCC)CCOC(=O)NCCN1CCCC1 (stereo not drawn) [Lipid 195]	2643.00 pg/mL	78.52 pg/mL	6.123 mV	16.37 mV	94%	75.44%	0.2474	94.75	0.1254	114.3	1.62E+05	1.23E+07	3.91E+07	1.63E+08	264.00 IU/L	84.67 IU/L	9.03E+03	1.67E+07	103%	116%	Footpad Thickness (24 h−0 h, mm) [10]: 0.56 mm; ALT in Sera (IU/L) 2 hours After 0.5 MPK Injection [11]: 109.00 IU/L; ALT in Sera (IU/L) 24 hours After 0.5 MPK Injection [11]: 35.00 IU/L; In vitro Viability RAW [12, 20]: 96%; In vitro Viability RAW [12, 19]: 77%
CCCCCCCCCC(=O)OCCCCCCCN(CCCCCCCCOC(=O)C(CCCCCC)CCCCCCCC)CCOC(=O)NCCN1CCCCC1 (stereo not drawn) [Lipid 196]	489.33 pg/mL	197.30 pg/mL	0.4256 mV	−2.076 mV	93%	91.87%	0.0364	89.57	0.1806	117.5	5.54E+04	1.58E+06	1.86E+07	1.41E+08	202.33 IU/L	180.67 IU/L	1.22E+04	2.31E+06	103%	91%	Footpad Thickness (24 h−0 h, mm) [10]: 0.44 mm; ALT in Sera (IU/L) 2 hours After 0.5 MPK Injection [11]: 80.33 IU/L; ALT in Sera (IU/L) 24 hours After 0.5 MPK Injection [11]: 93.00 IU/L; In vitro Viability RAW [12, 20]: 91%; In vitro Viability RAW [12, 19]: 110%

Now from value to compound, other results behind:

MCP-I in Sera 2 hours After 0.5 MPK Injection [1]	MCP-I in Sera 24 hours After 0.5 MPK Injection [1]	Zeta (mV) ([5]; LNP with cirRNA (SEQ ID NO: 1))	Zeta (mV) ([5]; LNP with mRNA (SEQ ID NO: 2))	Encapsulation Efficiency % [6]	Encapsulation Efficiency [6]	PDI ([7]; LNP with cirRNA (SEQ ID NO: 1))	Size ([7]; LNP with cirRNA (SEQ ID NO: 1))	PDI ([7]; LNP with mRNA (SEQ ID NO: 2))	Size ([7]; LNP with mRNA (SEQ ID NO: 2))	Structure (SMILES)	In vitro Expression HepG2 [2, 13]	In vitro Expression HepG2 [2, 14]	In vivo Expression (Whole Body) [3, 15]	In vivo Expression (Whole Body) [3, 16]	AST in Sera (IU/L) 2 hours After 0.5 MPK Injection [4]	AST in Sera (IU/L) 24 hours After 0.5 MPK Injection [4]	In vitro Expression RAW [8, 17]	In vitro Expression RAW [8, 14]	In vitro Viability HepG2 [9, 18]	In vitro Viability HepG2 [9, 19]	other results
4607.51 pg/mL	75.08 pg/mL	−0.573 mV	0.8152 mV	97%	89.10%	0.06	93.98	0.101	68.36	CCCCCCCCCCC(CCCCCCCC)COC(=O)CCCCCN(CCCCCC(=O)OCC(CCCCCCCC)CCCCCCCCCC)CCOC(=O)NCCN1CCCC1 (stereo not drawn) [Lipid 168]	1.03E+07	1.80E+07	4.82E+08	5.89E+09	218.63 IU/L	139.13 IU/L	1.66E+06	6.99E+05	55%	70%	Footpad Thickness (24 h−0 h, mm) [10]: 1.13 mm; ALT in Sera (IU/L) 2 hours After 0.5 MPK Injection [11]: 72.80 IU/L; ALT in Sera (IU/L) 24 hours After 0.5 MPK Injection [11]: 57.60 IU/L; In vitro Viability RAW [12, 20]: 79%; In vitro Viability RAW [12, 19]: 75%
509.14 pg/mL	80.18 pg/mL	−2.92 mV	−0.8755 mV	95%	87.64%	0.003	73.59	0.07881	88.09	CCCCCCCCCCC(CCCCCCCC)COC(=O)CCCCCN(CCCCCC(=O)OCC(CCCCCCCC)CCCCCCCCCC)CCOC(=O)NCCN1CCCCC1 (stereo not drawn) [Lipid 169]	1.94E+06	1.59E+07	4.92E+08	1.46E+09	129.50 IU/L	87.00 IU/L	5.36E+05	2.87E+06	88%	93%	Footpad Thickness (24 h−0 h, mm) [10]: 0.84 mm; ALT in Sera (IU/L) 2 hours After 0.5 MPK Injection [11]: 65.40 IU/L; ALT in Sera (IU/L) 24 hours After 0.5 MPK Injection [11]: 57.80 IU/L; In vitro Viability RAW [12, 20]: 82%; In vitro Viability RAW [12, 19]: 83%
